For test [1], the target named is T1, Vasoactive intestinal polypeptide receptor 1 (Homo sapiens, UniProt P32241).
T1 sequence (P32241 whole entry): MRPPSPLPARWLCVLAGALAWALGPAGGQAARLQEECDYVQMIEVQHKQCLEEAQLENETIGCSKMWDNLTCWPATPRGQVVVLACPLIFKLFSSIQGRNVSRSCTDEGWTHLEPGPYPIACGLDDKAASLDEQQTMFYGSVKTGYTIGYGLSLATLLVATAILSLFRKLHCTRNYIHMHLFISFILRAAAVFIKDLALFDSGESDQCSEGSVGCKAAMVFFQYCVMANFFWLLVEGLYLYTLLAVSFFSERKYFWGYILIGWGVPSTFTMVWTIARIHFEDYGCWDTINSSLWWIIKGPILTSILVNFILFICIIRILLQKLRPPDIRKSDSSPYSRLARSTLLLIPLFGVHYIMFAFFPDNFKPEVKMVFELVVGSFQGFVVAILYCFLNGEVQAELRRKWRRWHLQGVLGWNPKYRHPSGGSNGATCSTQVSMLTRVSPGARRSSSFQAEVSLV
As to the kind of experiment: Agonist activity at human VIPR1 expressed in CHOK1 cells assessed as intracellular cAMP accumulation after 60 mins by PathHunter assay. Format: functional, cell-based.

The target of test [2] is T2, Vasoactive intestinal polypeptide receptor 2 (Homo sapiens, UniProt P41587).
T2 sequence (P41587 whole entry): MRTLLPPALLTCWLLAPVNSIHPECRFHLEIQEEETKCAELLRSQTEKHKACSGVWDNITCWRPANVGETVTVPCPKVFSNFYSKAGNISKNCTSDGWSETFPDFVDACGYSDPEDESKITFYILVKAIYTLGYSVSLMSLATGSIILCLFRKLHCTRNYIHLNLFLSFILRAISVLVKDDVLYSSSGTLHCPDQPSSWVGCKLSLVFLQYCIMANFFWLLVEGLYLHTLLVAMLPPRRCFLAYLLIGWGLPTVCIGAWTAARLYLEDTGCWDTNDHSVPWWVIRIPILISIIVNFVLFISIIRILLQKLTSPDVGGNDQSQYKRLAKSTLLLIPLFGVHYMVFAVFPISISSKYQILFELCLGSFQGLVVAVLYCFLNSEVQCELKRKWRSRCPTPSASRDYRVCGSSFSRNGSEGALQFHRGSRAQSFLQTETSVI
As to the kind of experiment: Agonist activity at human VIPR2 expressed in CHOK1 cells assessed as intracellular cAMP accumulation after 60 mins by PathHunter assay. Format: functional, cell-based. In general terms: cAMP levels reflect the balance of adenylyl cyclase and phosphodiesterase activity.

Numbered stars: 1 amine (or outer) side, 2 acyl side, 3 side chain; on linkers, the order of the positions; unused ones are H or OH. Square brackets hold non-standard residues; d marks the D form. Peptide text beside a SMILES is read from it. ξ: configuration not given here. X1 = O=C([C@H]1CCC[C@@H]1N[*:1])[*:2]; X2 = O=C([C@H]1CNC[C@@H]1N[*:1])[*:2]; β3hN = NC(=O)C[C@H](N)CC(=O)O; β3hV = CC(C)[C@H](N)CC(=O)O; ξβ3hK = NCCCCC(N)CC(=O)O; Aib = CC(C)(N)C(=O)O; βAla = NCCC(=O)O

What is called EC50 is the concentration that produces a half-maximal response. With `CC(=O)N[C@@H](Cc1cnc[nH]1)C(=O)N[C@@H](CO)C(=O)N[C@@H](CC(=O)O)C(=O)N[C@@H](C)C(=O)N[C@H](C(=O)N[C@@H](Cc1ccccc1)C(=O)N[C@H](C(=O)N[C@@H](CCC(=O)O)C(=O)N[C@@H](CC(N)=O)C(=O)N[C@@H](Cc1ccc(O)cc1)C(=O)N[C@H](C(=O)N[C@@H](CCCCN)C(=O)N[C@@H](CC(C)C)C(=O)N[C@@H](CCCNC(=N)N)C(=O)N[C@@H](CCCCN)C(=O)N[C@@H](CCC(N)=O)C(=O)N[C@H]1CCC[C@@H]1C(=O)N[C@@H](C)C(=O)N[C@@H](C)C(=O)N[C@@H](CCCCN)C(=O)N[C@H]1CNC[C@@H]1C(=O)N[C@@H](Cc1ccc(O)cc1)C(=O)N[C@@H](CC(C)C)C(=O)N[C@H]1CCC[C@@H]1C(=O)N[C@@H](CC(=O)O)C(=O)N[C@@H](CC(C)C)C(=O)N[C@@H](CCCCN)C(=O)NC(CCCCN)CC(=O)NCC(=O)NCC(=O)N[C@H](C(=O)O)[C@@H](C)O)[C@@H](C)O)[C@@H](C)O)C(C)C` (stereo partly drawn) (Ac-HSDAVFTENYTKLRKQ[X1]AAK[X2]YL[X1]DLK[ξβ3hK]GGT-OH), the EC50 in test [1] came to 9.52 nM; in test [2], 0.422 nM.

As for `CC(=O)N[C@@H](Cc1cnc[nH]1)C(=O)N[C@@H](CO)C(=O)N[C@@H](CC(=O)O)C(=O)N[C@@H](C)C(=O)N[C@H](C(=O)N[C@@H](Cc1ccccc1)C(=O)N[C@H](C(=O)N[C@@H](CCC(=O)O)C(=O)N[C@@H](CC(N)=O)C(=O)N[C@@H](Cc1ccc(O)cc1)C(=O)N[C@H](C(=O)N[C@@H](CCCCN)C(=O)N[C@@H](CC(C)C)C(=O)N[C@@H](CCCNC(=N)N)C(=O)N[C@@H](CCCCN)C(=O)N[C@@H](CCC(N)=O)C(=O)N[C@H]1CCC[C@@H]1C(=O)N[C@@H](C)C(=O)N[C@@H](C)C(=O)N[C@H]1CNC[C@@H]1C(=O)N[C@@H](CCCCN)C(=O)N[C@@H](Cc1ccc(O)cc1)C(=O)N[C@@H](CC(C)C)C(=O)N[C@H]1CCC[C@@H]1C(=O)N[C@@H](CC(=O)O)C(=O)N[C@@H](CC(C)C)C(=O)NC(CCCCN)CC(=O)N[C@@H](CCCCN)C(=O)NCC(=O)NCC(=O)N[C@H](C(=O)O)[C@@H](C)O)[C@@H](C)O)[C@@H](C)O)C(C)C` (stereo partly drawn) (Ac-HSDAVFTENYTKLRKQ[X1]AA[X2]KYL[X1]DL[ξβ3hK]KGGT-OH), the EC50 in test [1] turned out to be 218 nM; in test [2], 0.18 nM.

On to `CC(=O)N[C@@H](Cc1cnc[nH]1)C(=O)NC(C)(C)C(=O)N[C@@H](CC(=O)O)C(=O)N[C@@H](C)C(=O)N[C@H](C(=O)N[C@@H](Cc1ccccc1)C(=O)N[C@H](C(=O)N[C@@H](CCC(=O)O)C(=O)N[C@@H](CC(N)=O)C(=O)N[C@@H](Cc1ccc(O)cc1)C(=O)N[C@H](C(=O)N[C@@H](CCCCN)C(=O)N[C@@H](CC(C)C)C(=O)N[C@@H](CCCNC(=N)N)C(=O)N[C@@H](CCCCN)C(=O)N[C@@H](CCC(N)=O)C(=O)N[C@@H](CC(C)C)C(=O)N[C@@H](C)C(=O)N[C@@H](C)C(=O)N[C@H]1CNC[C@@H]1C(=O)N[C@@H](CCCCN)C(=O)N[C@@H](Cc1ccc(O)cc1)C(=O)N[C@H]1CCC[C@@H]1C(=O)N[C@@H](CC(N)=O)C(=O)N[C@@H](CC(=O)O)C(=O)N[C@@H](CC(C)C)C(=O)NC(CCCCN)CC(=O)N[C@@H](CCCCN)C(=O)NCC(=O)NCCC(=O)N[C@H](C(=O)O)[C@@H](C)O)[C@@H](C)O)[C@@H](C)O)C(C)C` (stereo partly drawn) (Ac-H[Aib]DAVFTENYTKLRKQLAA[X2]KY[X1]NDL[ξβ3hK]KG[βAla]T-OH), for which the EC50 in test [1] was 516 nM; in test [2], 0.529 nM.

On to `CC(=O)N[C@@H](Cc1cnc[nH]1)C(=O)NC(C)(C)C(=O)N[C@@H](CC(=O)O)C(=O)N[C@@H](C)C(=O)N[C@H](CC(=O)N[C@@H](Cc1ccccc1)C(=O)N[C@H](C(=O)N[C@@H](CCC(=O)O)C(=O)N[C@@H](CC(N)=O)C(=O)N[C@@H](Cc1ccc(O)cc1)C(=O)N[C@H](C(=O)N[C@@H](CCCCN)C(=O)N[C@@H](CC(C)C)C(=O)N[C@@H](CCCNC(=N)N)C(=O)N[C@@H](CCCCN)C(=O)N[C@@H](CCC(N)=O)C(=O)N[C@@H](CC(C)C)C(=O)N[C@@H](C)C(=O)N[C@@H](C)C(=O)N[C@H]1CNC[C@@H]1C(=O)N[C@@H](CCCCN)C(=O)N[C@@H](Cc1ccc(O)cc1)C(=O)N[C@H]1CCC[C@@H]1C(=O)N[C@@H](CC(N)=O)C(=O)N[C@@H](CC(=O)O)C(=O)N[C@@H](CC(C)C)C(=O)NC(CCCCN)CC(=O)N[C@@H](CCCCN)C(=O)NCC(=O)NCCC(=O)N[C@H](C(=O)O)[C@@H](C)O)[C@@H](C)O)[C@@H](C)O)C(C)C` (stereo partly drawn) (Ac-H[Aib]DA[β3hV]FTENYTKLRKQLAA[X2]KY[X1]NDL[ξβ3hK]KG[βAla]T-OH), for which the EC50 is over 1000 nM in test [1] and 0.816 nM in test [2].

For `CC(=O)N[C@@H](Cc1cnc[nH]1)C(=O)NC(C)(C)C(=O)N[C@@H](CC(=O)O)C(=O)N[C@@H](C)C(=O)N[C@H](CC(=O)N[C@@H](Cc1ccccc1)C(=O)N[C@H](C(=O)N[C@@H](CCC(=O)O)C(=O)N[C@@H](CC(N)=O)CC(=O)N[C@@H](Cc1ccc(O)cc1)C(=O)N[C@H](C(=O)N[C@@H](CCCCN)C(=O)N[C@@H](CC(C)C)C(=O)N[C@@H](CCCNC(=N)N)C(=O)N[C@@H](CCCCN)C(=O)N[C@@H](CCC(N)=O)C(=O)N[C@@H](CC(C)C)C(=O)N[C@@H](C)C(=O)N[C@@H](C)C(=O)N[C@H]1CNC[C@@H]1C(=O)N[C@@H](CCCCN)C(=O)N[C@@H](Cc1ccc(O)cc1)C(=O)N[C@H]1CCC[C@@H]1C(=O)N[C@@H](CC(N)=O)C(=O)N[C@@H](CC(=O)O)C(=O)N[C@@H](CC(C)C)C(=O)NC(CCCCN)CC(=O)N[C@@H](CCCCN)C(=O)NCC(=O)NCCC(=O)N[C@H](C(=O)O)[C@@H](C)O)[C@@H](C)O)[C@@H](C)O)C(C)C` (stereo partly drawn) (Ac-H[Aib]DA[β3hV]FTE[β3hN]YTKLRKQLAA[X2]KY[X1]NDL[ξβ3hK]KG[βAla]T-OH), the concentration for a half-maximal effect (EC50) in test [1] was over 1000 nM; in test [2], 3.47 nM.

Consider `CC(=O)N[C@@H](Cc1cnc[nH]1)C(=O)N[C@H]1CCC[C@@H]1C(=O)N[C@@H](CC(=O)O)C(=O)N[C@@H](C)C(=O)N[C@H](C(=O)N[C@@H](Cc1ccccc1)C(=O)N[C@H](C(=O)N[C@@H](CCC(=O)O)C(=O)N[C@@H](CC(N)=O)C(=O)N[C@@H](Cc1ccc(O)cc1)C(=O)N[C@H](C(=O)N[C@@H](CCCCN)C(=O)N[C@@H](CC(C)C)C(=O)N[C@@H](CCCNC(=N)N)C(=O)N[C@@H](CCCCN)C(=O)N[C@@H](CCC(N)=O)C(=O)N[C@@H](CC(C)C)C(=O)N[C@@H](C)C(=O)N[C@@H](C)C(=O)N[C@H]1CNC[C@@H]1C(=O)N[C@@H](CCCCN)C(=O)N[C@@H](Cc1ccc(O)cc1)C(=O)N[C@H]1CCC[C@@H]1C(=O)N[C@@H](CC(N)=O)C(=O)N[C@@H](CC(=O)O)C(=O)N[C@@H](CC(C)C)C(=O)NC(CCCCN)CC(=O)N[C@@H](CCCCN)C(=O)NCC(=O)NCCC(=O)N[C@H](C(=O)O)[C@@H](C)O)[C@@H](C)O)[C@@H](C)O)C(C)C` (stereo partly drawn) (Ac-H[X1]DAVFTENYTKLRKQLAA[X2]KY[X1]NDL[ξβ3hK]KG[βAla]T-OH), for which the values for the concentration for a half-maximal effect (EC50) in test [1] and in test [2] were over 1000 nM and 0.593 nM, respectively.

With `CC(=O)N[C@@H](Cc1cnc[nH]1)C(=O)N[C@H]1CCC[C@@H]1C(=O)N[C@@H](CC(=O)O)C(=O)N[C@@H](C)C(=O)N[C@H]1CCC[C@@H]1C(=O)N[C@@H](Cc1ccccc1)C(=O)N[C@H](C(=O)N[C@@H](CCC(=O)O)C(=O)N[C@H]1CCC[C@@H]1C(=O)N[C@@H](Cc1ccc(O)cc1)C(=O)N[C@H](C(=O)N[C@@H](CCCCN)C(=O)N[C@@H](CC(C)C)C(=O)N[C@@H](CCCNC(=N)N)C(=O)N[C@@H](CCCCN)C(=O)N[C@@H](CCC(N)=O)C(=O)N[C@@H](CC(C)C)C(=O)N[C@@H](C)C(=O)N[C@@H](C)C(=O)N[C@H]1CNC[C@@H]1C(=O)N[C@@H](CCCCN)C(=O)N[C@@H](Cc1ccc(O)cc1)C(=O)N[C@H]1CCC[C@@H]1C(=O)N[C@@H](CC(N)=O)C(=O)N[C@@H](CC(=O)O)C(=O)N[C@@H](CC(C)C)C(=O)NC(CCCCN)CC(=O)N[C@@H](CCCCN)C(=O)NCC(=O)NCCC(=O)N[C@H](C(=O)O)[C@@H](C)O)[C@@H](C)O)[C@@H](C)O` (stereo partly drawn) (Ac-H[X1]DA[X1]FTE[X1]YTKLRKQLAA[X2]KY[X1]NDL[ξβ3hK]KG[βAla]T-OH), the figures for the 50% effective concentration (EC50) in test [1] and in test [2] were over 1000 nM and 5.58 nM, respectively.
